Test results as given in the NIST ThermoML archive (doi:10.1021/acs.jced.6b00455).

Assay: mn = molality of the nth substance listed, in mol/kg
Conditions: 101 kPa, Liquid, Alternating current cell with electrodes

C[N+](C)(C)CCO.O=C([O-])C(F)(F)C(F)(F)C(F)(F)C(F)(F)F [(2-hydroxyethyl)trimethylammonium perfluoropentanoate] + O
Conditions | electrical conductivity [S/m]
303.15 K, m1 = 0.02055 | 0.138
303.15 K, m1 = 0.02116 | 0.142
303.15 K, m1 = 0.02184 | 0.146
303.15 K, m1 = 0.02259 | 0.15
303.15 K, m1 = 0.02308 | 0.153
303.15 K, m1 = 0.0237 | 0.157
303.15 K, m1 = 0.0247 | 0.164
303.15 K, m1 = 0.02557 | 0.168
308.15 K, m1 = 0.000318 | 0.0029
308.15 K, m1 = 0.000786 | 0.007
308.15 K, m1 = 0.001299 | 0.0115
308.15 K, m1 = 0.001909 | 0.0169
308.15 K, m1 = 0.002425 | 0.021
308.15 K, m1 = 0.002911 | 0.0256
308.15 K, m1 = 0.003184 | 0.0277
308.15 K, m1 = 0.003945 | 0.035
308.15 K, m1 = 0.004657 | 0.0404
308.15 K, m1 = 0.005206 | 0.0449
308.15 K, m1 = 0.005836 | 0.0493
308.15 K, m1 = 0.006331 | 0.0529
308.15 K, m1 = 0.006772 | 0.0563
308.15 K, m1 = 0.007443 | 0.0629
308.15 K, m1 = 0.008421 | 0.0711
308.15 K, m1 = 0.008974 | 0.0763
308.15 K, m1 = 0.009871 | 0.0832
308.15 K, m1 = 0.01044 | 0.0864
308.15 K, m1 = 0.01092 | 0.0897
308.15 K, m1 = 0.01159 | 0.0936
308.15 K, m1 = 0.01221 | 0.0982
308.15 K, m1 = 0.01248 | 0.101
308.15 K, m1 = 0.01314 | 0.104
308.15 K, m1 = 0.01361 | 0.108
308.15 K, m1 = 0.01442 | 0.114
308.15 K, m1 = 0.01492 | 0.119
308.15 K, m1 = 0.01568 | 0.125
308.15 K, m1 = 0.0164 | 0.13
308.15 K, m1 = 0.01694 | 0.134
308.15 K, m1 = 0.01787 | 0.14
308.15 K, m1 = 0.01861 | 0.145
308.15 K, m1 = 0.01941 | 0.151
308.15 K, m1 = 0.02104 | 0.162
308.15 K, m1 = 0.02193 | 0.168
308.15 K, m1 = 0.02283 | 0.173
308.15 K, m1 = 0.02369 | 0.178
308.15 K, m1 = 0.02427 | 0.182
308.15 K, m1 = 0.02502 | 0.188
308.15 K, m1 = 0.02563 | 0.192
313.15 K, m1 = 0.000187 | 0.0015
313.15 K, m1 = 0.000688 | 0.0067
313.15 K, m1 = 0.001827 | 0.0169
313.15 K, m1 = 0.002361 | 0.0217
313.15 K, m1 = 0.002859 | 0.0266
313.15 K, m1 = 0.003424 | 0.0322
313.15 K, m1 = 0.00399 | 0.0371
313.15 K, m1 = 0.004604 | 0.0421
313.15 K, m1 = 0.005344 | 0.0499
313.15 K, m1 = 0.005863 | 0.0548
313.15 K, m1 = 0.006345 | 0.0593
313.15 K, m1 = 0.006846 | 0.064
313.15 K, m1 = 0.008054 | 0.074
313.15 K, m1 = 0.008628 | 0.079
313.15 K, m1 = 0.009481 | 0.0864
313.15 K, m1 = 0.009912 | 0.0907
313.15 K, m1 = 0.01048 | 0.0955
313.15 K, m1 = 0.01099 | 0.0999
313.15 K, m1 = 0.01153 | 0.104
313.15 K, m1 = 0.0121 | 0.11
313.15 K, m1 = 0.01268 | 0.114
313.15 K, m1 = 0.01328 | 0.119
313.15 K, m1 = 0.01388 | 0.124
313.15 K, m1 = 0.01459 | 0.13
313.15 K, m1 = 0.01545 | 0.136
313.15 K, m1 = 0.01599 | 0.141
313.15 K, m1 = 0.0169 | 0.148
313.15 K, m1 = 0.01817 | 0.157
313.15 K, m1 = 0.01879 | 0.162
313.15 K, m1 = 0.01965 | 0.169
313.15 K, m1 = 0.02019 | 0.172
313.15 K, m1 = 0.02082 | 0.177
313.15 K, m1 = 0.02134 | 0.18
313.15 K, m1 = 0.02194 | 0.184
313.15 K, m1 = 0.02255 | 0.19
313.15 K, m1 = 0.02328 | 0.195
313.15 K, m1 = 0.02409 | 0.2
